Assay results from patent EP2465928A1, “Treatment of Th17-mediated diseases” (Academisch Medisch Centrum bij de Universiteit van Amsterdam, priority 2010, dated 2012).

Legend:
Type in all cases: cell-based, human
Malt1 [1] = assay: NF-κB DNA binding in nuclear extracts of stimulated DCs (TransAM NF-κB family kit); conditions: curdlan-stimulated DCs; 75 µM z-VRPR-FMK, 2 h pre-incubation
Method: (§1) Cells, stimulation, inhibition and RNA interference. This study was performed in accordance with the ethical guidelines of the Academic Medical Center. Immature DCs (iDC, day 6 and 7) were generated as described previously. In short, human blood monocytes were isolated from buffy coats by a Ficoll and a Percoll gradient and or CD14 selection by magnetic beads. Monocytes were differentiated into immature DCs in the presence of IL-4 and GM-CSFAt day 6 the phenotype of the cultured DCs was confirmed by flow cytometric analysis. 100.000 DCs were stimulated with 10 µg/ml curdlan (Sigma), heat-killed Candida spp. (multiplicity of infection (MOI) 10) and 10 ng/ml LPS from Salmonella typhosa (Sigma) in 100-150 µl medium. Dectin-2 triggering was induced by pre-incubating DCs for 2 h at room temperature with 5 µg/ml anti-dectin-2 (MAB3114; R&D Systems), followed by cross-linking on goat-anti-mouse IgG (115-006-0710; Jackson)-coated culture plates. Cells were pre-incubated with blocking antibodies or inhibitor for 2 h with 20 µg/ml anti-dectin-1 (MAB1859; R&D Systems), 20 µg/ml anti-dectin-2 (MAB3114; R&D Systems) or 75 µM z-VRPR-FMK (Malt1 inhibitor [22]; Alexis). […]
NF-κB DNA binding. Nuclear extracts of DCs were prepared using NucBuster protein extraction kit (Novagen) and NF-κB DNA binding determined using TransAM NF-κB family kit (Active Motif).

Malt1 [2] = assay: Immunofluorescence staining of nuclear translocation of NF-κB subunits in DCs; conditions: curdlan-stimulated DCs; 75 µM z-VRPR-FMK; data not shown
Method: as §1

Malt1 [3] = assay: Quantitative real-time PCR for cytokine mRNAs in stimulated DCs; conditions: curdlan-stimulated DCs; 75 µM z-VRPR-FMK
Method: (§2) Cells, stimulation, inhibition and RNA interference. This study was performed in accordance with the ethical guidelines of the Academic Medical Center. Immature DCs (iDC, day 6 and 7) were generated as described previously. In short, human blood monocytes were isolated from buffy coats by a Ficoll and a Percoll gradient and or CD14 selection by magnetic beads. Monocytes were differentiated into immature DCs in the presence of IL-4 and GM-CSFAt day 6 the phenotype of the cultured DCs was confirmed by flow cytometric analysis. 100.000 DCs were stimulated with 10 µg/ml curdlan (Sigma), heat-killed Candida spp. (multiplicity of infection (MOI) 10) and 10 ng/ml LPS from Salmonella typhosa (Sigma) in 100-150 µl medium. Dectin-2 triggering was induced by pre-incubating DCs for 2 h at room temperature with 5 µg/ml anti-dectin-2 (MAB3114; R&D Systems), followed by cross-linking on goat-anti-mouse IgG (115-006-0710; Jackson)-coated culture plates. Cells were pre-incubated with blocking antibodies or inhibitor for 2 h with 20 µg/ml anti-dectin-1 (MAB1859; R&D Systems), 20 µg/ml anti-dectin-2 (MAB3114; R&D Systems) or 75 µM z-VRPR-FMK (Malt1 inhibitor [22]; Alexis). DCs were transfected with 25 nM siRNA (SEQ ID NO:5-8) using transfection reagens DF4 (Dharmacon), and used for experiments 72 h after transfection. 'SMARTpool' siRNAs used were: Syk (M-003176-03), CARD9 (M-004400-01), Bcl10 (M-004381-02), Malt1 (M-005936-02), c-Rel (M-004768-01) and non-targeting siRNA (D-001206-13) as a control (Dharmacon). […] PCR amplification was performed with the SYBR green method in an ABI 7900HT sequence detection system (Applied Biosystems).Silencing of expression was verified by real-time PCR and flow cytometry (not shown).
Quantitative real-time PCR. mRNA isolation, cDNA synthesis and PCR amplification with the SYBR green method in an ABI 7500 Fast PCR detection system (Applied Biosystems) were performed as described. Standard conditions according to manufacturer's instructions were used. Specific primers were designed using Primer Express 2.0 (Applied Biosystems; Supplementary Table 1). The Ct value is defined as the number of PCR cycles where the fluorescence signal exceeds the detection threshold value. For each sample, the normalized amount of target mRNA was calculated from the obtained Ct values for both target and GAPDH mRNA with Nt = 2^Ct(GAPDH)-Ct(target) The relative mRNA expression was obtained by setting Nt in curdlan-or LPS-stimulated samples at 1 within one experiment and for each donor.

Malt1 [4] = assay: Cytokine production by ELISA in supernatants of stimulated DCs; conditions: 75 µM z-VRPR-FMK
Method: as §2
Cytokine production. Cell culture supernatants were harvested after 28 h of stimulation and concentrations of IL-1β, IL-23, IL-6 (Invitrogen) and IL-12p70 (eBioscience) were determined by ELISA.

Malt1 [5] = assay: Th17 polarization assay (primed DCs co-cultured with memory CD4+ T cells); conditions: DCs pre-incubated with z-VRPR-FMK
Method: Th17 polarization assay. Memory CD4^+ T cells were isolated as described previously. Human PBMC were isolated from heparinized human peripheral blood by density gradient centrifugation on Lymphoprep (Nycomed), and PBMC were subsequently seperated in monocytes and PBL by density gradient centrifugation on Percoll (Pharmacia). Memory CD4^+ T cells were isolated with CD45R0^+-PE (Dakopatts) and anti-PE-beads (MACS). iDCs were preincubated for 2 h with inhibitors, activated for 16 h with curdlan or heat-killed Candida spp. and subsequently co-cultured with memory CD4^+ T cells as described (20,000 T cells/2000 DCs in the presence of 10 pg/ml Staphylococcus aureus enterotoxin B (Sigma). After 5 days of co-culture, supernatants were harvested and analyzed for IL-17 production by ELISA (Biosource). Cells were further cultured in the presence of 10 U/ml IL-2 (Chiron) and resting cells were restimulated after 12 days with 100 ng/ml PMA (Sigma) and 1 µg/ml ionomycin (Sigma) for 6 h, the last 5 h in the presence of 10 µg/ml brefeldin A (Sigma), and analyzed for intracellular cytokine expression by staining with biotinylated mouse anti-IL-17 (ebio64DE; eBioscience), followed by incubation with streptavidin-PE (BD Pharmingen) and FITC-conjugated mouse anti-IFN-γ (25723.11; BD).

[6] = more strongly than dectin-1 inhibition
[7] = DCs after C. albicans stimulation
[8] = DCs stimulated with C. albicans strain CBS8781 and CBS2712
[9] = DCs stimulated with C. lusitaniae and C. nivariensis

z-Valine-Arginine-Proline-DL-Arginine-FMK [z-VRPR-FMK]
activation of c-Rel (Malt1 [1]): completely abolished
activation of the other NF-κB subunits (Malt1 [1]): without affecting
nuclear translocation of c-Rel (Malt1 [2]): specifically interferes
IL-1β mRNA levels (Malt1 [3]): markedly reduced
IL-6 mRNA production (Malt1 [3]): slightly enhanced
IL-12p35 mRNA production (Malt1 [3]): slightly enhanced
IL-12p40 mRNA production (Malt1 [3]): neither dependent on Malt1 expression nor activation
IL-23p19 mRNA levels (Malt1 [3]): markedly reduced
C. albicans CBS2712-induced IL-1β expression (Malt1 [4]; [6]): decreased
C. albicans CBS2712-induced IL-23 expression (Malt1 [4]; [6]): decreased
IL-12p70 production (Malt1 [4]; [7]): unaffected
expression of IL-6 (Malt1 [4]; [7]): slightly upregulated
expression of IL-1β: requirement for Malt1 activation (Malt1 [4]; [8]): required
expression of IL-23: requirement for Malt1 activation (Malt1 [4]; [8]): required
IL-1β production (Malt1 [4]; [9]): largely dependent on Malt1 protease activity
IL-6 expression (Malt1 [4]; [9]): slightly enhanced
IL-12p70 (Malt1 [4]; [9]): unaffected
IL-23 production (Malt1 [4]; [9]): largely dependent on Malt1 protease activity
IL-1β protein expression (Malt1 [4]; curdlan-stimulated DCs, 28 h): severely reduced
IL-6 expression (Malt1 [4]; curdlan-stimulated DCs, 28 h): only slightly enhancing
IL-12p70 expression (Malt1 [4]; curdlan-stimulated DCs, 28 h): without affecting
IL-23 protein expression (Malt1 [4]; curdlan-stimulated DCs, 28 h): severely reduced
ability of DCs primed by the different Candida spp. to promote IL-17 expression in CD4+ T cells (Malt1 [5]; C. albicans CBS8781, CBS2712, C. lusitaniae, C. nivariensis, intracellular IL-17 day 12): completely blocked
capacity of curdlan-primed DCs to induce IL-17 expression in CD4+ T cells (Malt1 [5]; IL-17 ELISA day 5, intracellular IL-17 day 12): markedly reduced
